Measured values published in the supplement of paper PMC5908809.

Key:
[1] = test system: normal NK cells expanded with K562-aAPC; assay: percent inhibition of viability; higher = more inhibition; conditions: 72 h, IL-2 2.5 ng/mL
Method: (§1)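 Drug sensitivity and resistance testing on K562-aAPC-expanded normal NK cells: 5 concentrations (10-fold steps over a 10,000-fold range), 72 h at 37 °C, viability by CellTiter-Glo normalised to DMSO and benzethonium chloride controls; DSS from the fitted curve.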

DERL-7 (IL-2 2.5 ng/mL) [2] = assay: as above; conditions: 72 h
IMC-1 (IL-2 20 ng/mL) [3] = assay: as above; conditions: 72 h
KAI3 (IL-2 2.5 ng/mL) [4] = assay: as above; conditions: 72 h
KHYG-1 (IL-2 2.5 ng/mL) [5] = assay: as above; conditions: 72 h
NK-92 (IL-2 2.5 ng/mL) [6] = assay: as above; conditions: 72 h
NK-YS (IL-2 2.5 ng/mL) [7] = assay: as above; conditions: 72 h
NKL (IL-2 2.5 ng/mL) [8] = assay: as above; conditions: 72 h
SNK-6 (IL-2 2.5 ng/mL) [9] = assay: as above; conditions: 72 h
YT (IL-2 2.5 ng/mL) [10] = assay: as above; conditions: 72 h
[11] = test system: normal primary NK cells, pool 1 (3 donors) (IL-2 2.5 ng/mL); assay: as above; conditions: 72 h
[12] = test system: normal primary NK cells, pool 1 (3 donors), resting (IL-2 0 ng/mL); assay: as above; conditions: 72 h
[13] = test system: normal primary NK cells, pool 2 (3 donors) (IL-2 2.5 ng/mL); assay: as above; conditions: 72 h
[14] = test system: normal primary NK cells, pool 3 (3 donors) (IL-2 2.5 ng/mL); assay: as above; conditions: 72 h
[15] = test system: normal NK cells expanded with K562-aAPC; assay: drug sensitivity score (DSS) (DSS units); higher = more sensitive; extreme values may be limits of the assay; conditions: 72 h; IL-2 2.5 ng/mL
Method: as §1

DERL-7 (IL-2 2.5 ng/mL) [16] = assay: as above; conditions: 72 h
IMC-1 (IL-2 20 ng/mL) [17] = assay: as above; conditions: 72 h
KAI3 (IL-2 2.5 ng/mL) [18] = assay: as above; conditions: 72 h
KHYG-1 (IL-2 2.5 ng/mL) [19] = assay: as above; conditions: 72 h
NK-92 (IL-2 2.5 ng/mL) [20] = assay: as above; conditions: 72 h
NK-YS (IL-2 2.5 ng/mL) [21] = assay: as above; conditions: 72 h
NKL (IL-2 2.5 ng/mL) [22] = assay: as above; conditions: 72 h
SNK-6 (IL-2 2.5 ng/mL) [23] = assay: as above; conditions: 72 h
YT (IL-2 2.5 ng/mL) [24] = assay: as above; conditions: 72 h
[25] = test system: normal primary NK cells, pool 1 (3 donors) (IL-2 2.5 ng/mL); assay: as above; conditions: 72 h
[26] = test system: normal primary NK cells, pool 1 (3 donors), resting (IL-2 0 ng/mL); assay: as above; conditions: 72 h
[27] = test system: normal primary NK cells, pool 2 (3 donors) (IL-2 2.5 ng/mL); assay: as above; conditions: 72 h
[28] = test system: normal primary NK cells, pool 3 (3 donors) (IL-2 2.5 ng/mL); assay: as above; conditions: 72 h

CCc1c(C(=O)C(N)=O)c2c(OCC(=O)O)cccc2n1Cc1ccccc1 [Varespladib] (max concentration tested 10000 nM)
percent inhibition of viability [%]
Conditions	1 nM	10 nM	100 nM	1000 nM	10000 nM
DERL-7 (IL-2 2.5 ng/mL) [2]	-6.07	2.76	-0.45	-1.82	-5.52
IMC-1 (IL-2 20 ng/mL) [3]	-6.89	-8.73	-5.72	-2.45	-3.95
KAI3 (IL-2 2.5 ng/mL) [4]	-1.85	-2.11	-10.8	-0.18	21.5
KHYG-1 (IL-2 2.5 ng/mL) [5]	-3.76	-11.3	-0.03	8.53	2.8
NK-92 (IL-2 2.5 ng/mL) [6]	-21.4	-19.5	-14.8	-0.75	31.5
NK-YS (IL-2 2.5 ng/mL) [7]	-2.2	-6.12	-3.85	2.05	12.8
NKL (IL-2 2.5 ng/mL) [8]	-9.5	-5.06	-13.2	2.87	-9.38
SNK-6 (IL-2 2.5 ng/mL) [9]	-7.52	-21.8	-13.8	-2.84	6.58
YT (IL-2 2.5 ng/mL) [10]	-8.21	-8.83	-14.4	-11.3	13.2
[1]	-11.2	-11.6	-12.4	3.91	4.13
[11]	-5.21	-8.55	9.76	0.64	7.95
[12]	-21.1	-19.8	7.01	11.6	26.9
[13]	-5.85	-4.05	1.84	6.26	5.5
[14]	-8.31	-9.39	-3.85	-0.09	3.01

Conditions	drug sensitivity score
DERL-7 (IL-2 2.5 ng/mL) [16]	0
IMC-1 (IL-2 20 ng/mL) [17]	0
KAI3 (IL-2 2.5 ng/mL) [18]	0.68
KHYG-1 (IL-2 2.5 ng/mL) [19]	0
NK-92 (IL-2 2.5 ng/mL) [20]	1.34
NK-YS (IL-2 2.5 ng/mL) [21]	0.22
NKL (IL-2 2.5 ng/mL) [22]	0
SNK-6 (IL-2 2.5 ng/mL) [23]	0
YT (IL-2 2.5 ng/mL) [24]	0.02
[15]	0
[25]	0
[26]	2.05
[27]	0
[28]	0

C[C@@H]1COC(Nc2ccc3ncnc(Nc4ccc(OCc5nccs5)c(Cl)c4)c3c2)=N1 [Varlitinib] (max concentration tested 10000 nM)
percent inhibition of viability [%]
Conditions	1 nM	10 nM	100 nM	1000 nM	10000 nM
DERL-7 (IL-2 2.5 ng/mL) [2]	1.37	-3.89	-4.97	-5.43	-2.66
IMC-1 (IL-2 20 ng/mL) [3]	-2.91	6.3	4.06	14.6	34
KAI3 (IL-2 2.5 ng/mL) [4]	0.52	0.69	-2.99	5.18	9.75
KHYG-1 (IL-2 2.5 ng/mL) [5]	0.82	-0.44	4.79	10.6	19.4
NK-92 (IL-2 2.5 ng/mL) [6]	-5.14	-6.85	0.79	4.69	35.3
NK-YS (IL-2 2.5 ng/mL) [7]	2.18	-3.81	2.34	4.33	12.3
NKL (IL-2 2.5 ng/mL) [8]	1.14	7.53	8.83	12.6	17.6
SNK-6 (IL-2 2.5 ng/mL) [9]	7.32	23.1	18.9	25.6	29.6
YT (IL-2 2.5 ng/mL) [10]	3.61	0.68	4.78	8.48	12.2
[1]	-1.48	1.48	0.78	6.23	6.06
[11]	-1.41	-12.3	1.76	-7.07	4.85
[12]	-8.46	-19.4	-14.8	-23.5	-3.47
[13]	-7.11	-4.04	6.91	1.02	9.32
[14]	-15.9	-6.58	-0.23	-16.5	3.13

Conditions	drug sensitivity score
DERL-7 (IL-2 2.5 ng/mL) [16]	0
IMC-1 (IL-2 20 ng/mL) [17]	2.92
KAI3 (IL-2 2.5 ng/mL) [18]	0
KHYG-1 (IL-2 2.5 ng/mL) [19]	1.18
NK-92 (IL-2 2.5 ng/mL) [20]	2.45
NK-YS (IL-2 2.5 ng/mL) [21]	0.1
NKL (IL-2 2.5 ng/mL) [22]	1.5
SNK-6 (IL-2 2.5 ng/mL) [23]	8.77
YT (IL-2 2.5 ng/mL) [24]	0.09
[15]	0
[25]	0
[26]	0
[27]	0
[28]	0

CCC1=C[C@@H]2CN(C1)Cc1c([nH]c3ccccc13)[C@@](C(=O)OC)(c1cc3c(cc1OC)N(C)[C@H]1[C@@](O)(C(=O)OC)[C@H](OC(C)=O)[C@]4(CC)C=CCN5CC[C@]31[C@@H]54)C2 [Vinorelbine] (max concentration tested 10000 nM)
percent inhibition of viability [%]
Conditions	1 nM	10 nM	100 nM	1000 nM	10000 nM
DERL-7 (IL-2 2.5 ng/mL) [2]	-3.93	85.2	98.5	98.5	100
IMC-1 (IL-2 20 ng/mL) [3]	-0.83	99.3	99.7	100	101
KAI3 (IL-2 2.5 ng/mL) [4]	-0.08	44.9	58.9	70.4	70.2
KHYG-1 (IL-2 2.5 ng/mL) [5]	2.76	57.8	97.2	103	105
NK-92 (IL-2 2.5 ng/mL) [6]	-12.5	23.4	88.8	98.5	102
NK-YS (IL-2 2.5 ng/mL) [7]	10.7	66.4	64.9	84.2	90
NKL (IL-2 2.5 ng/mL) [8]	3.63	84.8	93.6	93.9	93.2
SNK-6 (IL-2 2.5 ng/mL) [9]	22.5	78.3	84.4	96.7	96.5
YT (IL-2 2.5 ng/mL) [10]	0.44	65.8	95.2	98.7	100
[1]	1.8	11.8	57.4	59.7	79
[11]	-4.33	-2.37	-0.15	4.78	40.3
[12]	-1.44	-3.84	-0.59	21.5	76.9
[13]	-13.5	0.55	18.7	12.3	39.7
[14]	-16.2	-7.94	14.5	19.8	32.1

Conditions	drug sensitivity score
DERL-7 (IL-2 2.5 ng/mL) [16]	40.4
IMC-1 (IL-2 20 ng/mL) [17]	42.8
KAI3 (IL-2 2.5 ng/mL) [18]	27.1
KHYG-1 (IL-2 2.5 ng/mL) [19]	37.3
NK-92 (IL-2 2.5 ng/mL) [20]	31.6
NK-YS (IL-2 2.5 ng/mL) [21]	33.5
NKL (IL-2 2.5 ng/mL) [22]	39.5
SNK-6 (IL-2 2.5 ng/mL) [23]	40.6
YT (IL-2 2.5 ng/mL) [24]	38.2
[15]	20.7
[25]	2.8
[26]	7.49
[27]	3.94
[28]	4.42

CC[C@@H]1C(=O)N(C)c2cnc(Nc3ccc(C(=O)N[C@H]4CC[C@H](N5CCN(CC6CC6)CC5)CC4)cc3OC)nc2N1C(C)C [Volasertib] (max concentration tested 1000 nM)
percent inhibition of viability [%]
Conditions	0.1 nM	1 nM	10 nM	100 nM	1000 nM
DERL-7 (IL-2 2.5 ng/mL) [2]	6.13	1.89	15.1	98.3	95
IMC-1 (IL-2 20 ng/mL) [3]	-3.21	-4.2	2.24	94	93.2
KAI3 (IL-2 2.5 ng/mL) [4]	2.62	2.62	15	38.7	51.1
KHYG-1 (IL-2 2.5 ng/mL) [5]	-0.67	-1.62	4.85	98.4	99.2
NK-92 (IL-2 2.5 ng/mL) [6]	-14.8	-9.97	33.1	92	82.6
NK-YS (IL-2 2.5 ng/mL) [7]	-1.3	1.64	5.27	59	51
NKL (IL-2 2.5 ng/mL) [8]	-8.73	-9.25	-5.94	65.4	40.5
SNK-6 (IL-2 2.5 ng/mL) [9]	8.84	8.4	39	65.5	42.1
YT (IL-2 2.5 ng/mL) [10]	-2.13	1.45	2.63	73.9	70.2
[1]	0.48	-0.94	-1.6	54.3	54.2
[11]	-2.22	-7	-3.63	-0.83	28.3
[12]	8.74	-8.57	-4.01	0.78	16
[13]	-9.16	-9.48	-8.67	-4.83	38.6
[14]	-12.7	-9.54	-12.6	-7.36	8.33

Conditions	drug sensitivity score
DERL-7 (IL-2 2.5 ng/mL) [16]	20.2
IMC-1 (IL-2 20 ng/mL) [17]	17.2
KAI3 (IL-2 2.5 ng/mL) [18]	8.7
KHYG-1 (IL-2 2.5 ng/mL) [19]	18.4
NK-92 (IL-2 2.5 ng/mL) [20]	21.2
NK-YS (IL-2 2.5 ng/mL) [21]	11.7
NKL (IL-2 2.5 ng/mL) [22]	11.5
SNK-6 (IL-2 2.5 ng/mL) [23]	16.3
YT (IL-2 2.5 ng/mL) [24]	13.8
[15]	9.75
[25]	1.12
[26]	0.37
[27]	1.57
[28]	0
